Measurements published in PubChem BioAssay AID1259407 (Chemical Carcinogenesis Research Information System (CCRIS), 2018).
Active and inactive are the calls of the source. The rule behind the calls is not given here.

System: CCRIS mutagenicity, Ames/micronucleus/aberration tests
Test: CCRIS mutagenicity studies
[1] = Test System: AMES SALMONELLA TYPHIMURIUM, Strain/Indicator: TA98, Metabolic Activation: NONE, Method: PREINCUBATION
[2] = Test System: AMES SALMONELLA TYPHIMURIUM, Strain/Indicator: TA100, Metabolic Activation: NONE, Method: PREINCUBATION
[3] = Test System: AMES SALMONELLA TYPHIMURIUM, Strain/Indicator: TA102, Metabolic Activation: NONE, Method: PREINCUBATION
[4] = Test System: AMES SALMONELLA TYPHIMURIUM, Strain/Indicator: TA104, Metabolic Activation: NONE, Method: PREINCUBATION
[5] = Test System: AMES SALMONELLA TYPHIMURIUM, Strain/Indicator: TA1535, Metabolic Activation: NONE, Method: PREINCUBATION
[6] = Test System: AMES SALMONELLA TYPHIMURIUM, Strain/Indicator: TA1537, Metabolic Activation: NONE, Method: PREINCUBATION

## NC1=CC(=O)C(=O)c2ccccc21
Test System: AMES SALMONELLA TYPHIMURIUM, Strain/Indicator: TA97, Metabolic Activation: NONE, Method: PREINCUBATION
  mutagenic call: active; positive
Test System: AMES SALMONELLA TYPHIMURIUM, Strain/Indicator: TA97, Metabolic Activation: RAT, LIVER, S-9, PHENOBARBITAL AND 5,6-BENZOFLAVONE, Method: PREINCUBATION
  mutagenic call: active; positive
[1]
  mutagenic call: inactive; negative
Test System: AMES SALMONELLA TYPHIMURIUM, Strain/Indicator: TA98, Metabolic Activation: RAT, LIVER, S-9, PHENOBARBITAL AND 5,6-BENZOFLAVONE, Method: PREINCUBATION
  mutagenic call: active; positive
[2]
  mutagenic call: active; positive
Test System: AMES SALMONELLA TYPHIMURIUM, Strain/Indicator: TA100, Metabolic Activation: RAT, LIVER, S-9, PHENOBARBITAL AND 5,6-BENZOFLAVONE, Method: PREINCUBATION
  mutagenic call: active; positive
[3]
  mutagenic call: inactive; negative
Test System: AMES SALMONELLA TYPHIMURIUM, Strain/Indicator: TA102, Metabolic Activation: RAT, LIVER, S-9, PHENOBARBITAL AND 5,6-BENZOFLAVONE, Method: PREINCUBATION
  mutagenic call: inactive; negative
[4]
  mutagenic call: active; positive
Test System: AMES SALMONELLA TYPHIMURIUM, Strain/Indicator: TA104, Metabolic Activation: RAT, LIVER, S-9, PHENOBARBITAL AND 5,6-BENZOFLAVONE, Method: PREINCUBATION
  mutagenic call: active; positive
[5]
  mutagenic call: inactive; negative
Test System: AMES SALMONELLA TYPHIMURIUM, Strain/Indicator: TA1535, Metabolic Activation: RAT, LIVER, S-9, PHENOBARBITAL AND 5,6-BENZOFLAVONE, Method: PREINCUBATION
  mutagenic call: inactive; negative
[6]
  mutagenic call: inactive; negative
Test System: AMES SALMONELLA TYPHIMURIUM, Strain/Indicator: TA1537, Metabolic Activation: RAT, LIVER, S-9, PHENOBARBITAL AND 5,6-BENZOFLAVONE, Method: PREINCUBATION
  mutagenic call: active; positive
Test System: AMES SALMONELLA TYPHIMURIUM, Strain/Indicator: TA1538, Metabolic Activation: NONE, Method: PREINCUBATION
  mutagenic call: inactive; negative
Test System: AMES SALMONELLA TYPHIMURIUM, Strain/Indicator: TA1538, Metabolic Activation: RAT, LIVER, S-9, PHENOBARBITAL AND 5,6-BENZOFLAVONE, Method: PREINCUBATION
  mutagenic call: inactive; negative
Test System: AMES SALMONELLA TYPHIMURIUM, Strain/Indicator: TA2637, Metabolic Activation: NONE, Method: PREINCUBATION
  mutagenic call: active; positive
Test System: AMES SALMONELLA TYPHIMURIUM, Strain/Indicator: TA2637, Metabolic Activation: RAT, LIVER, S-9, PHENOBARBITAL AND 5,6-BENZOFLAVONE, Method: PREINCUBATION
  mutagenic call: active; positive

## O=[N+]([O-])c1cccc2c1-c1ccccc1C2
End Point: IN VITRO CHROMOSOMAL ABERRATIONS, Test System: CHINESE HAMSTER LUNG (CHL) CELLS, Metabolic Activation: NONE
  mutagenic call: active; positive
End Point: IN VITRO CHROMOSOMAL ABERRATIONS, Test System: CHINESE HAMSTER LUNG (CHL) CELLS, Metabolic Activation: RAT, LIVER, S-9, KC-400
  mutagenic call: active; positive

## Cc1ccc(N)c(S(=O)(=O)O)c1
Test System: AMES SALMONELLA TYPHIMURIUM, Strain/Indicator: TA98, Metabolic Activation: HAMSTER, LIVER, S-9, AROCLOR 1254, Method: STANDARD PLATE
  mutagenic call: inactive; negative
[1]
  mutagenic call: inactive; negative
Test System: AMES SALMONELLA TYPHIMURIUM, Strain/Indicator: TA98, Metabolic Activation: NONE, Method: STANDARD PLATE
  mutagenic call: inactive; negative
Test System: AMES SALMONELLA TYPHIMURIUM, Strain/Indicator: TA98, Metabolic Activation: RAT LIVER S-9, PHENOBARBITAL AND BETA-NAPHTHOFLAVONE, Method: PREINCUBATION
  mutagenic call: inactive; negative
Test System: AMES SALMONELLA TYPHIMURIUM, Strain/Indicator: TA98, Metabolic Activation: RAT, LIVER, S-9, AROCLOR 1254, Method: STANDARD PLATE
  mutagenic call: inactive; negative
Test System: AMES SALMONELLA TYPHIMURIUM, Strain/Indicator: TA100, Metabolic Activation: HAMSTER, LIVER, S-9, AROCLOR 1254, Method: STANDARD PLATE
  mutagenic call: inactive; negative
[2]
  mutagenic call: inactive; negative
Test System: AMES SALMONELLA TYPHIMURIUM, Strain/Indicator: TA100, Metabolic Activation: NONE, Method: STANDARD PLATE
  mutagenic call: inactive; negative
Test System: AMES SALMONELLA TYPHIMURIUM, Strain/Indicator: TA100, Metabolic Activation: RAT LIVER S-9, PHENOBARBITAL AND BETA-NAPHTHOFLAVONE, Method: PREINCUBATION
  mutagenic call: inactive; negative
Test System: AMES SALMONELLA TYPHIMURIUM, Strain/Indicator: TA100, Metabolic Activation: RAT, LIVER, S-9, AROCLOR 1254, Method: STANDARD PLATE
  mutagenic call: inactive; negative
[3]
  mutagenic call: inactive; negative
Test System: AMES SALMONELLA TYPHIMURIUM, Strain/Indicator: TA102, Metabolic Activation: RAT LIVER S-9, PHENOBARBITAL AND BETA-NAPHTHOFLAVONE, Method: PREINCUBATION
  mutagenic call: inactive; negative
[4]
  mutagenic call: inactive; negative
Test System: AMES SALMONELLA TYPHIMURIUM, Strain/Indicator: TA104, Metabolic Activation: RAT LIVER S-9, PHENOBARBITAL AND BETA-NAPHTHOFLAVONE, Method: PREINCUBATION
  mutagenic call: inactive; negative
Test System: AMES SALMONELLA TYPHIMURIUM, Strain/Indicator: TA1535, Metabolic Activation: HAMSTER, LIVER, S-9, AROCLOR 1254, Method: STANDARD PLATE
  mutagenic call: inactive; negative
[5]
  mutagenic call: inactive; negative
Test System: AMES SALMONELLA TYPHIMURIUM, Strain/Indicator: TA1535, Metabolic Activation: NONE, Method: STANDARD PLATE
  mutagenic call: inactive; negative
Test System: AMES SALMONELLA TYPHIMURIUM, Strain/Indicator: TA1535, Metabolic Activation: RAT LIVER S-9, PHENOBARBITAL AND BETA-NAPHTHOFLAVONE, Method: PREINCUBATION
  mutagenic call: inactive; negative
Test System: AMES SALMONELLA TYPHIMURIUM, Strain/Indicator: TA1535, Metabolic Activation: RAT, LIVER, S-9, AROCLOR 1254, Method: STANDARD PLATE
  mutagenic call: inactive; negative
Test System: AMES SALMONELLA TYPHIMURIUM, Strain/Indicator: TA1537, Metabolic Activation: HAMSTER, LIVER, S-9, AROCLOR 1254, Method: STANDARD PLATE
  mutagenic call: inactive; negative
[6]
  mutagenic call: inactive; negative
Test System: AMES SALMONELLA TYPHIMURIUM, Strain/Indicator: TA1537, Metabolic Activation: NONE, Method: STANDARD PLATE
  mutagenic call: inactive; negative
Test System: AMES SALMONELLA TYPHIMURIUM, Strain/Indicator: TA1537, Metabolic Activation: RAT LIVER S-9, PHENOBARBITAL AND BETA-NAPHTHOFLAVONE, Method: PREINCUBATION
  mutagenic call: inactive; negative
Test System: AMES SALMONELLA TYPHIMURIUM, Strain/Indicator: TA1537, Metabolic Activation: RAT, LIVER, S-9, AROCLOR 1254, Method: STANDARD PLATE
  mutagenic call: inactive; negative
Test System: AMES SALMONELLA TYPHIMURIUM, Strain/Indicator: TA1538, Metabolic Activation: HAMSTER, LIVER, S-9, AROCLOR 1254, Method: STANDARD PLATE
  mutagenic call: inactive; negative
Test System: AMES SALMONELLA TYPHIMURIUM, Strain/Indicator: TA1538, Metabolic Activation: NONE, Method: STANDARD PLATE
  mutagenic call: inactive; negative
Test System: AMES SALMONELLA TYPHIMURIUM, Strain/Indicator: TA1538, Metabolic Activation: RAT, LIVER, S-9, AROCLOR 1254, Method: STANDARD PLATE
  mutagenic call: inactive; negative
Test System: E.COLI, Strain/Indicator: WP2UVRA/PKM101, Metabolic Activation: NONE, Method: PREINCUBATION
  mutagenic call: inactive; negative
Test System: E.COLI, Strain/Indicator: WP2UVRA/PKM101, Metabolic Activation: RAT LIVER S-9, PHENOBARBITAL AND BETA-NAPHTHOFLAVONE, Method: PREINCUBATION
  mutagenic call: inactive; negative
Test System: E.COLI, Strain/Indicator: WP2UVRA, Metabolic Activation: NONE, Method: PREINCUBATION
  mutagenic call: inactive; negative
Test System: E.COLI, Strain/Indicator: WP2UVRA, Metabolic Activation: RAT LIVER S-9, PHENOBARBITAL AND BETA-NAPHTHOFLAVONE, Method: PREINCUBATION
  mutagenic call: inactive; negative
Test System: MOUSE LYMPHOMA, Strain/Indicator: L5178Y (TK+/TK-), Metabolic Activation: NONE, Method: SUSPENSION/PLATE
  mutagenic call: inactive; negative. reevaluation of results: negative
Test System: MOUSE LYMPHOMA, Strain/Indicator: L5178Y (TK+/TK-), Metabolic Activation: RAT, LIVER, S-9, AROCLOR 1254, Method: SUSPENSION/PLATE
  mutagenic call: inactive; negative. reevaluation of results: equivocal
Test System: UDS RODENT HEPATOCYTES, Strain/Indicator: THY INCORP (NON-S-PHASE), Metabolic Activation: NONE, Method: AUTORADIOGRAPHY
  mutagenic call: inactive; negative
